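Dose response: 5 concentrations. Exposure: 48 h. Format: 96-well plates. Endpoint: linear interpolation; highest concentration if not reached. GI50 is the concentration that inhibits growth by half. Definition used: TGI = concentration required for complete inhibition of growth.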
Legend:
Test in all cases: NCI-60 cell line screen, 48 h
[1] = tested on: NCI/ADR-RES ovarian
[2] = tested on: HOP-92 NSCLC
[3] = tested on: HCT-15 colon
[4] = tested on: MDA-N
[5] = tested on: A549 NSCLC
[6] = tested on: HL-60(TB) leukemia
[7] = tested on: SK-MEL-5 melanoma
[8] = tested on: DU-145 prostate
[9] = tested on: SK-MEL-28 melanoma
[10] = tested on: SF-539 CNS
[11] = tested on: EKVX NSCLC
[12] = tested on: BT-549 breast
[13] = tested on: MDA-MB-231 breast
[14] = tested on: TK-10 renal
[15] = tested on: OVCAR-8 ovarian
[16] = tested on: T-47D breast
[17] = tested on: ACHN renal
[18] = tested on: NCI-H522 lung
[19] = tested on: COLO 205 colon
[20] = tested on: A498 renal
[21] = tested on: K-562 leukemia
[22] = tested on: SF-268 CNS
[23] = tested on: HCC-2998 colon
[24] = tested on: SR leukemia
[25] = tested on: LOX IMVI melanoma
[26] = tested on: RXF 393 renal
[27] = tested on: NCI-H460 lung
[28] = tested on: MOLT-4 leukemia
[29] = tested on: CAKI-1 renal
[30] = tested on: SK-MEL-2 melanoma
[31] = tested on: NCI-H23 lung
[32] = tested on: HS 578T breast
[33] = tested on: HOP-62 NSCLC
[34] = tested on: U251 CNS
[35] = tested on: KM12 colon
[36] = tested on: UO-31 renal
[37] = tested on: IGROV1 ovarian
[38] = tested on: SW-620 colon
[39] = tested on: 786-0 renal
[40] = tested on: OVCAR-3 ovarian
[41] = tested on: MCF7 breast
[42] = tested on: HT29 colon
[43] = tested on: OVCAR-5 ovarian
[44] = tested on: HCT-116 colon
[45] = tested on: OVCAR-4 ovarian
[46] = tested on: MALME-3M melanoma
[47] = tested on: MDA-MB-435
[48] = tested on: NCI-H226 lung
[49] = tested on: UACC-62 melanoma
[50] = tested on: UACC-257 melanoma
[51] = tested on: SF-295 CNS
[52] = tested on: CCRF-CEM leukemia
[53] = tested on: RPMI-8226 leukemia
[54] = tested on: SN12C renal
[55] = tested on: SNB-19 CNS
[56] = tested on: M14 melanoma
[57] = tested on: SNB-75 CNS
[58] = tested on: SK-OV-3 ovarian
[59] = tested on: PC-3 prostate

## CC1=C[C@@H](C)C[C@]2(C)CC[C@H](O2)[C@]23CC[C@](C)(C[C@H](O2)[C@@H]2O[C@@](C)(CC2=O)[C@@H](O)[C@H]2CC[C@@]4(CCC[C@@H](O4)[C@H](C)C(=O)O[C@H]4C[C@H]([C@]5(O)OCC[C@H](C)[C@@H]5O)O[C@H]4C=C1)O2)O3
[1]
  TGI: > 10 µM
[2]
  TGI: 0.00517 µM
[3]
  TGI: > 10 µM
[4]
  TGI: > 10 µM
[5]
  TGI: > 10 µM
[6]
  TGI: > 10 µM
[7]
  TGI: 0.0212 µM
[8]
  TGI: > 10 µM
[9]
  TGI: 0.0233 µM
[10]
  TGI: 0.00503 µM
[11]
  TGI: 0.128 µM
[12]
  TGI: 0.0103 µM
[13]
  TGI: 0.238 µM
[14]
  TGI: 0.0277 µM
[15]
  TGI: > 10 µM
[16]
  TGI: > 10 µM
[17]
  TGI: > 5.25 µM
[18]
  TGI: > 10 µM
[19]
  TGI: 0.00188 µM
[20]
  TGI: 0.005 µM
[21]
  TGI: > 10 µM
[22]
  TGI: 0.0219 µM
[23]
  TGI: > 10 µM
[24]
  TGI: > 10 µM
[25]
  TGI: > 10 µM
[26]
  TGI: 0.00747 µM
[27]
  TGI: > 10 µM
[28]
  TGI: > 10 µM
[29]
  TGI: 0.00515 µM
[30]
  TGI: > 10 µM
[31]
  TGI: 0.0826 µM
[32]
  TGI: 0.00214 µM
[33]
  TGI: 0.00916 µM
[34]
  TGI: > 10 µM
[35]
  TGI: > 10 µM
[36]
  TGI: 0.0231 µM
[37]
  TGI: 0.0154 µM
[38]
  TGI: > 10 µM
[39]
  TGI: 0.181 µM
[40]
  TGI: 0.02 µM
[41]
  TGI: > 10 µM
[42]
  TGI: > 10 µM
[43]
  TGI: > 10 µM

## Nc1cc2cccc[n+]2c2cccc(Cl)c12
[2]
  GI50: 51 µM
[44]
  GI50: 36.9 µM
[4]
  GI50: 21.3 µM
  TGI: 61.5 µM
[5]
  GI50: 30.9 µM
[45]
  GI50: 17.1 µM
  TGI: 72.8 µM
[6]
  GI50: 47.4 µM
[7]
  GI50: 4.94 µM
  TGI: 17.8 µM
[8]
  GI50: 46.4 µM
[9]
  GI50: 17 µM
  TGI: 41.7 µM
[46]
  GI50: 3.21 µM
  TGI: 13.5 µM
[10]
  GI50: 23 µM
  TGI: 71.2 µM
[47]
  GI50: 25.8 µM
  TGI: 72.2 µM
[11]
  GI50: 32.1 µM
[12]
  GI50: 16.1 µM
  TGI: 48.8 µM
[13]
  GI50: 17 µM
[14]
  GI50: 94.7 µM
[15]
  GI50: 24.1 µM
[16]
  GI50: 9.86 µM
[17]
  GI50: 41.8 µM
[18]
  GI50: 16.2 µM
  TGI: 78 µM
[19]
  GI50: 15.5 µM
[21]
  GI50: 11.2 µM
[22]
  GI50: 4.94 µM
  TGI: 35.6 µM
[23]
  GI50: 11.4 µM
  TGI: 32.4 µM
[24]
  GI50: 5.58 µM
  TGI: 51.2 µM
[48]
  GI50: 18 µM
  TGI: 86 µM
[49]
  GI50: 24.7 µM
  TGI: 59.8 µM
[50]
  GI50: 11.3 µM
  TGI: 27.4 µM
[51]
  GI50: 33.4 µM
[52]
  GI50: 12 µM
  TGI: 94.4 µM
[27]
  GI50: 20.2 µM
  TGI: 58.7 µM
[28]
  GI50: 7.46 µM
[30]
  GI50: 10.7 µM
  TGI: 28.1 µM
[53]
  GI50: 21.3 µM
[31]
  GI50: 14.3 µM
  TGI: 65.6 µM
[54]
  GI50: 7.16 µM
  TGI: 42.1 µM
[32]
  GI50: 21.9 µM
  TGI: 60.2 µM
[34]
  GI50: 6.36 µM
  TGI: 33.8 µM
[35]
  GI50: 4.1 µM
  TGI: 65.2 µM
[36]
  GI50: 61.4 µM
[37]
  GI50: 69.9 µM
[55]
  GI50: 12.7 µM
  TGI: 84.1 µM
[56]
  GI50: 36.4 µM
[38]
  GI50: 34.2 µM
[39]
  GI50: 22.1 µM
[41]
  GI50: 19.4 µM
[42]
  GI50: 56.2 µM

## OC(CCN1CCN(CCOC(c2ccccc2)c2ccccc2)CC1)c1ccc(Br)cc1 (centres undefined)
[1]
  TGI: 21.9 µM
[2]
  TGI: 25.1 µM
[44]
  TGI: 23.3 µM
[3]
  TGI: 19.3 µM
[4]
  TGI: 22.9 µM
[5]
  TGI: 30.5 µM
[45]
  TGI: 38.6 µM
[57]
  TGI: 27.5 µM
[6]
  TGI: 28.8 µM
[7]
  TGI: 12.6 µM
[8]
  TGI: 32.4 µM
[9]
  TGI: 22.8 µM
[46]
  TGI: 24.4 µM
[10]
  TGI: 27.6 µM
[47]
  TGI: 27 µM
[11]
  TGI: 23.5 µM
[12]
  TGI: 26.1 µM
[13]
  TGI: 25.3 µM
[14]
  TGI: 26.9 µM
[58]
  TGI: 27 µM
[15]
  TGI: 19.9 µM
[16]
  TGI: 33.4 µM
[17]
  TGI: 22.9 µM
[18]
  TGI: 29.4 µM
[19]
  TGI: 3.38 µM
[20]
  TGI: 22 µM
[22]
  TGI: 30.3 µM
[23]
  TGI: 3.96 µM
[48]
  TGI: 37.6 µM
[49]
  TGI: 22.8 µM
[25]
  TGI: 23.5 µM
[50]
  TGI: 12.6 µM
[51]
  TGI: 29.8 µM
[26]
  TGI: 22.9 µM
[52]
  TGI: 45.3 µM
[27]
  TGI: 26 µM
[29]
  TGI: 26.9 µM
[30]
  TGI: 25.6 µM
[31]
  TGI: 28 µM
[54]
  TGI: 25.2 µM
[32]
  TGI: 42.8 µM
[33]
  TGI: 32 µM
[34]
  TGI: 25.1 µM
[35]
  TGI: 36.9 µM
[36]
  TGI: 4.77 µM
[37]
  TGI: 24.7 µM
[55]
  TGI: 30.3 µM
[56]
  TGI: 11.2 µM
[59]
  TGI: 23 µM
[38]
  TGI: 44.5 µM
[39]
  TGI: 22.8 µM
[40]
  TGI: 28 µM
[41]
  TGI: 31.8 µM
[42]
  TGI: 16.5 µM
[43]
  TGI: 28.3 µM
